The source made the active and inactive calls.
Experiments:
Format in all cases: functional
[1] = target: Fibroblast growth factor receptor 1 (Homo sapiens, UniProt P11362)
[2] = target: Mitogen-activated protein kinase 9 (Homo sapiens, UniProt P45984);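 also: value from a kinome panel profiling assay, MAPK9 panel entry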
[3] = target: Platelet-derived growth factor receptor beta (Homo sapiens, UniProt P09619);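 also: value comes from a kinome panel, with PDGFRB tested as one panel member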
[4] = target: BDNF/NT-3 growth factors receptor (Homo sapiens, UniProt Q16620);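 also: NTRK2 measured as one member of a broad kinome-wide kinase profiling panel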
[5] = target: Serine/threonine-protein kinase pim-1 (Homo sapiens, UniProt P11309)
[6] = target: Cyclin-dependent kinase 7 (Homo sapiens, UniProt P50613);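 also: value comes from a kinome-wide kinase profiling panel in which CDK7 is one member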
[7] = target: Mitogen-activated protein kinase kinase kinase kinase 2 (Homo sapiens, UniProt Q12851);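 also: measured as one member of a kinome-wide kinase panel, with MAP4K2 as the panel entry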
[8] = target: Protein kinase C theta type (Homo sapiens, UniProt Q04759); assay: Navigating the Kinome. Panel member name: PRKCQ
Activin receptor type-1 = Activin receptor type-1 (Homo sapiens, UniProt Q04771); assay: Navigating the Kinome. Panel member name: ACVR1
[9] = target: Dual specificity tyrosine-phosphorylation-regulated kinase 1A (Homo sapiens, UniProt Q13627);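 also: measured against DYRK1A as one member of a broad kinome profiling panel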
[10] = target: 5'-AMP-activated protein kinase catalytic subunit alpha-1 (Homo sapiens, UniProt Q13131)
[11] = target: Tyrosine-protein kinase BTK (Homo sapiens, UniProt Q06187)
[12] = target: Leukocyte tyrosine kinase receptor (Homo sapiens, UniProt P29376); assay: Navigating the Kinome. Panel member name: LTK
[13] = target: Cyclin-dependent kinase 8 (Homo sapiens, UniProt P49336); assay: Navigating the Kinome. Panel member name: CDK8
[14] = target: Serine/threonine-protein kinase D3 (Homo sapiens, UniProt O94806);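 also: determined within a kinase panel screen, with PRKCN as the panel member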
[15] = target: Platelet-derived growth factor receptor alpha (Homo sapiens, UniProt P16234); assay: Navigating the Kinome. Panel member name: PDGFRA
[16] = target: Cyclin-dependent kinase 9 (Homo sapiens, UniProt P50750);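 also: value from the CDK9 entry of a kinome-spanning kinase panel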
[17] = target: Serine/threonine-protein kinase Chk1 (Homo sapiens, UniProt O14757);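 also: measured as one member of a kinome-wide kinase profiling panel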
[18] = target: Receptor-type tyrosine-protein kinase FLT3 (Homo sapiens, UniProt P36888);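 also: FLT3 was tested as one member of a kinome-wide kinase panel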
[19] = target: Tyrosine-protein kinase ABL1 (Homo sapiens, UniProt P00519)
[20] = target: Dual specificity protein kinase CLK2 (Homo sapiens, UniProt P49760)
[21] = target: ALK tyrosine kinase receptor (Homo sapiens, UniProt Q9UM73);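 also: ALK tested as one member of a kinase panel screen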
[22] = target: Casein kinase I isoform alpha (Homo sapiens, UniProt P48729)
[23] = target: Vascular endothelial growth factor receptor 1 (Homo sapiens, UniProt P17948);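 also: measured within a kinome-wide profiling panel, FLT1 as the panel member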
[24] = target: Serine/threonine-protein kinase TBK1 (Homo sapiens, UniProt Q9UHD2); assay: Navigating the Kinome. Panel member name: TBK1
[25] = target: High affinity nerve growth factor receptor (Homo sapiens, UniProt P04629);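 also: NTRK1 tested as one member of a kinome-wide profiling panel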
[26] = target: Serine/threonine-protein kinase TAO1 (Homo sapiens, UniProt Q7L7X3)
[27] = target: Leucine-rich repeat serine/threonine-protein kinase 2 (Homo sapiens, UniProt Q5S007);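 also: value from a broad kinome-wide panel profiling study in which LRRK2 was one of the kinases tested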
[28] = target: Rho-associated protein kinase 1 (Homo sapiens, UniProt Q13464);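 also: measured within a broad kinome-wide panel profiling many kinases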
[29] = target: Insulin-like growth factor 1 receptor (Homo sapiens, UniProt P08069); assay: Navigating the Kinome. Panel member name: IGF1R
Aurora kinase B = Aurora kinase B (Homo sapiens, UniProt Q96GD4)
Aurora kinase A = Aurora kinase A (Homo sapiens, UniProt O14965);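 also: value from the Navigating the Kinome kinase panel profiling, panel entry STK6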
[30] = target: Ribosomal protein S6 kinase alpha-3 (Homo sapiens, UniProt P51812);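 also: measured within a kinome-wide profiling panel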
[31] = target: Dual specificity protein kinase CLK4 (Homo sapiens, UniProt Q9HAZ1)
[32] = target: Dual specificity mitogen-activated protein kinase kinase 1 (Homo sapiens, UniProt Q02750); assay: Navigating the Kinome. Panel member name: MAP2K1
[33] = target: Inhibitor of nuclear factor kappa-B kinase subunit epsilon (Homo sapiens, UniProt Q14164); assay: Navigating the Kinome. Panel member name: IKBKE
[34] = target: Tyrosine-protein kinase Lck (Homo sapiens, UniProt P06239);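 also: lck was assayed as one member of a kinase panel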
LIM domain kinase 1 = LIM domain kinase 1 (Homo sapiens, UniProt P53667); assay: Navigating the Kinome. Panel member name: LIMK1
[35] = target: Tyrosine-protein kinase Fyn (Homo sapiens, UniProt P06241)
[36] = target: Macrophage colony-stimulating factor 1 receptor (Homo sapiens, UniProt P07333);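 also: value comes from the Navigating the Kinome screening panel, CSF1R member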
[37] = target: Mitogen-activated protein kinase 8 (Homo sapiens, UniProt P45983);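 also: value comes from one member of a kinome-wide kinase profiling panel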
[38] = target: Death-associated protein kinase 3 (Homo sapiens, UniProt O43293);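 also: measured as one member of a kinome-wide profiling panel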
[39] = target: cAMP-dependent protein kinase catalytic subunit alpha (Homo sapiens, UniProt P17612)
[40] = target: Serine/threonine-protein kinase Nek2 (Homo sapiens, UniProt P51955)
[41] = target: Dual specificity tyrosine-phosphorylation-regulated kinase 1B (Homo sapiens, UniProt Q9Y463); assay: Navigating the Kinome. Panel member name: DYRK1B
[42] = target: cAMP-dependent protein kinase catalytic subunit PRKX (Homo sapiens, UniProt P51817)
[43] = target: Tyrosine-protein kinase receptor TYRO3 (Homo sapiens, UniProt Q06418);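 also: TYRO3 value obtained as one member of a kinome-wide profiling panel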
[44] = target: Calcium/calmodulin-dependent protein kinase type II subunit alpha (Homo sapiens, UniProt Q9UQM7); assay: Navigating the Kinome. Panel member name: CAMK2A
[45] = target: Tyrosine-protein kinase JAK3 (Homo sapiens, UniProt P52333)
[46] = target: Glycogen synthase kinase-3 alpha (Homo sapiens, UniProt P49840);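 also: GSK3A result taken from a broad kinome-wide kinase panel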
[47] = target: Macrophage-stimulating protein receptor (Homo sapiens, UniProt Q04912); assay: Navigating the Kinome. Panel member name: MST1R
[48] = target: Mitogen-activated protein kinase kinase kinase kinase 4 (Homo sapiens, UniProt O95819)
[49] = target: Vascular endothelial growth factor receptor 2 (Homo sapiens, UniProt P35968)
[50] = target: Dual specificity mitogen-activated protein kinase kinase 2 (Homo sapiens, UniProt P36507); assay: Navigating the Kinome. Panel member name: MAP2K2
[51] = target: Serine/threonine-protein kinase PAK 4 (Homo sapiens, UniProt O96013);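 also: value obtained within a kinome profiling panel in which PAK4 was one of the panel members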
[52] = target: Glycogen synthase kinase-3 beta (Homo sapiens, UniProt P49841);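 also: value comes from a broad kinome profiling panel, with GSK3B as the panel member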
Focal adhesion kinase 1 = Focal adhesion kinase 1 (Homo sapiens, UniProt Q05397);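 also: measured as one member of a kinome panel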
[53] = target: Tyrosine-protein kinase JAK2 (Homo sapiens, UniProt O60674);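 also: JAK2 tested as one member of a kinase panel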
Activated CDC42 kinase 1 = Activated CDC42 kinase 1 (Homo sapiens, UniProt Q07912); assay: Navigating the Kinome. Panel member name: ACK1
Sequence of Activated CDC42 kinase 1 (Q07912 whole entry): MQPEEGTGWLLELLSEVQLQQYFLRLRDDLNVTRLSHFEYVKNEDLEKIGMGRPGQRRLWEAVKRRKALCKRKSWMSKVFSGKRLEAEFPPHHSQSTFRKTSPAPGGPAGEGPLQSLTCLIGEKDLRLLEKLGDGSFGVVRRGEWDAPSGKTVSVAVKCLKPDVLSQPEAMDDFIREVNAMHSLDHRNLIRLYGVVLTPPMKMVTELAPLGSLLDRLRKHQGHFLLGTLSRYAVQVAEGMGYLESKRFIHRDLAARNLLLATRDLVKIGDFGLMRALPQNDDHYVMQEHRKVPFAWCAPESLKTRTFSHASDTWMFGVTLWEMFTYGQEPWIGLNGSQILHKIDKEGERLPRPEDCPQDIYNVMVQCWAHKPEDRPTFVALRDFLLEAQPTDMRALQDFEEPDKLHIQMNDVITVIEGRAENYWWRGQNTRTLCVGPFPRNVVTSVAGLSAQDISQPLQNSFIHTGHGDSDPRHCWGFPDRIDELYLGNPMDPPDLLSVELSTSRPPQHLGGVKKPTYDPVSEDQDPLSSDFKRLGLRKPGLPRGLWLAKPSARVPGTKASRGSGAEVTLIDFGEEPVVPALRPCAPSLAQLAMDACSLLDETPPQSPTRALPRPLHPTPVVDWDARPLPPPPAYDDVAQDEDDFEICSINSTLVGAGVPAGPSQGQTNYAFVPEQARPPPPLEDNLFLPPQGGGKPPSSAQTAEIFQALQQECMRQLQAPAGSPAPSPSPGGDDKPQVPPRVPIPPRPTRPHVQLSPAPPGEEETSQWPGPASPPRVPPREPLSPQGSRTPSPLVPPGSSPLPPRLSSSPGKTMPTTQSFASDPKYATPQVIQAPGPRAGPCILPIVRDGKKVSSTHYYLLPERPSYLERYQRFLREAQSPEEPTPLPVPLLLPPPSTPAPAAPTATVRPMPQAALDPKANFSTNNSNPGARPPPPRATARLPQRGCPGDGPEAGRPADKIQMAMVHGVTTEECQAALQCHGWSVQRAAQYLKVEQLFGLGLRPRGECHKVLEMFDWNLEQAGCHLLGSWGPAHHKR

Sequence of Cyclin-dependent kinase 7 (P50613 whole entry): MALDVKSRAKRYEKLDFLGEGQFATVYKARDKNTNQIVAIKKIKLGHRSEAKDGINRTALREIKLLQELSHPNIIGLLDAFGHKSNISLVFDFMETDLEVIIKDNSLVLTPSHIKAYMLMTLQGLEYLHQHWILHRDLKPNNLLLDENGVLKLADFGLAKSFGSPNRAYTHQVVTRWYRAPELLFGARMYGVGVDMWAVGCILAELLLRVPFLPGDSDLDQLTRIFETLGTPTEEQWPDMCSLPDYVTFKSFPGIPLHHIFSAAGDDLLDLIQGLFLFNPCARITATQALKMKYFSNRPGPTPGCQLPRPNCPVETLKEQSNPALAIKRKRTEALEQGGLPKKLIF
Sequence of LIM domain kinase 1 (P53667 whole entry, the tested form may be a part): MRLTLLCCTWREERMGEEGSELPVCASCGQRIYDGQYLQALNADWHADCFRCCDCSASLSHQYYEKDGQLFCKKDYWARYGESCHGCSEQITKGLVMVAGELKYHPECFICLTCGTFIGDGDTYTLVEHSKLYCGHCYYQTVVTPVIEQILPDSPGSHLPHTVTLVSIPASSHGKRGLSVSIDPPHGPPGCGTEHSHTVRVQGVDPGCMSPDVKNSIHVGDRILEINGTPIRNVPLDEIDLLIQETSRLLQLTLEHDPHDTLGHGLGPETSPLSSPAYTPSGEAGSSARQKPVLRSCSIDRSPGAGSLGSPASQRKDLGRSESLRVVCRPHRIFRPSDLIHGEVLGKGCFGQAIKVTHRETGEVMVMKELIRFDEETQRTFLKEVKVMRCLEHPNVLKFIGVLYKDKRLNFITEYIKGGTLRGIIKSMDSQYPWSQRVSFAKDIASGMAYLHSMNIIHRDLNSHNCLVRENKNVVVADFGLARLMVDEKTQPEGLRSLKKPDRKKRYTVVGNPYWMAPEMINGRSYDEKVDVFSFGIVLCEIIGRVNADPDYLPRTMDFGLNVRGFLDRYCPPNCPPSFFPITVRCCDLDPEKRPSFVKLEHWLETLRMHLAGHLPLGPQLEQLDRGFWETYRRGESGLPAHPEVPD
Sequence of Serine/threonine-protein kinase Chk1 (O14757 whole entry): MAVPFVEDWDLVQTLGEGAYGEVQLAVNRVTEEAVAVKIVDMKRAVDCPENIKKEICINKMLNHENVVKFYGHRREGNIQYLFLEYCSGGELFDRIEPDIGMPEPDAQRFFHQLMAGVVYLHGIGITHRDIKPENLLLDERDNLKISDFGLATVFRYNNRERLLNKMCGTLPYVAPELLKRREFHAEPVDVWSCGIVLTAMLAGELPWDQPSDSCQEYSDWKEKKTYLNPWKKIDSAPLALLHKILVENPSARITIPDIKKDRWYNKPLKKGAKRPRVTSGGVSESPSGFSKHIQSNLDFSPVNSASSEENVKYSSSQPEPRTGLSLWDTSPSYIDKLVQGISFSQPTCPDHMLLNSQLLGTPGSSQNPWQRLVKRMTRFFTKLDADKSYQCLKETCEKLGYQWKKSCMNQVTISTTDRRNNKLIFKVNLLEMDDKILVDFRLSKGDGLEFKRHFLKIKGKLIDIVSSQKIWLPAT
Sequence of BDNF/NT-3 growth factors receptor (Q16620 whole entry): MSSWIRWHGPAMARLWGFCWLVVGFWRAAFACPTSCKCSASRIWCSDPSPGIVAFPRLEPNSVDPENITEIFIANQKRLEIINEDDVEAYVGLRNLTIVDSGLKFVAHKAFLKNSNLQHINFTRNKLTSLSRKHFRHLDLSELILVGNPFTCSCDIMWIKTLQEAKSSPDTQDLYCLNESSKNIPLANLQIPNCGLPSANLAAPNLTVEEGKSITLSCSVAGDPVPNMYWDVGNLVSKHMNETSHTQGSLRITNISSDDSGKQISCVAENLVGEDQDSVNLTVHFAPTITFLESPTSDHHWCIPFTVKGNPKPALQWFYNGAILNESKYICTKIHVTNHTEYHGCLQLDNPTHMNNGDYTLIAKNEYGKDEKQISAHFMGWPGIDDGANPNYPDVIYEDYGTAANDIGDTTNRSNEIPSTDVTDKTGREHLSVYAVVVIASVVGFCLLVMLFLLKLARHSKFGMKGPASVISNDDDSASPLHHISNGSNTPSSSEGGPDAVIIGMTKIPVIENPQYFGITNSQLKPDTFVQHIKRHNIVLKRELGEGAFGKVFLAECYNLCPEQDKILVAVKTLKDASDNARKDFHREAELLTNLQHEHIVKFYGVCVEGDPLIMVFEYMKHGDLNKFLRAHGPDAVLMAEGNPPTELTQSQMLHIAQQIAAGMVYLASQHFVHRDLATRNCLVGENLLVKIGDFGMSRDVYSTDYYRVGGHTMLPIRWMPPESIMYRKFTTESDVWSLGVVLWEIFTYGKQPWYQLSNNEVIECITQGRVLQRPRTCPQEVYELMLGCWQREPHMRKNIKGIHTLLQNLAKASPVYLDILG
Sequence of Macrophage colony-stimulating factor 1 receptor (P07333 whole entry): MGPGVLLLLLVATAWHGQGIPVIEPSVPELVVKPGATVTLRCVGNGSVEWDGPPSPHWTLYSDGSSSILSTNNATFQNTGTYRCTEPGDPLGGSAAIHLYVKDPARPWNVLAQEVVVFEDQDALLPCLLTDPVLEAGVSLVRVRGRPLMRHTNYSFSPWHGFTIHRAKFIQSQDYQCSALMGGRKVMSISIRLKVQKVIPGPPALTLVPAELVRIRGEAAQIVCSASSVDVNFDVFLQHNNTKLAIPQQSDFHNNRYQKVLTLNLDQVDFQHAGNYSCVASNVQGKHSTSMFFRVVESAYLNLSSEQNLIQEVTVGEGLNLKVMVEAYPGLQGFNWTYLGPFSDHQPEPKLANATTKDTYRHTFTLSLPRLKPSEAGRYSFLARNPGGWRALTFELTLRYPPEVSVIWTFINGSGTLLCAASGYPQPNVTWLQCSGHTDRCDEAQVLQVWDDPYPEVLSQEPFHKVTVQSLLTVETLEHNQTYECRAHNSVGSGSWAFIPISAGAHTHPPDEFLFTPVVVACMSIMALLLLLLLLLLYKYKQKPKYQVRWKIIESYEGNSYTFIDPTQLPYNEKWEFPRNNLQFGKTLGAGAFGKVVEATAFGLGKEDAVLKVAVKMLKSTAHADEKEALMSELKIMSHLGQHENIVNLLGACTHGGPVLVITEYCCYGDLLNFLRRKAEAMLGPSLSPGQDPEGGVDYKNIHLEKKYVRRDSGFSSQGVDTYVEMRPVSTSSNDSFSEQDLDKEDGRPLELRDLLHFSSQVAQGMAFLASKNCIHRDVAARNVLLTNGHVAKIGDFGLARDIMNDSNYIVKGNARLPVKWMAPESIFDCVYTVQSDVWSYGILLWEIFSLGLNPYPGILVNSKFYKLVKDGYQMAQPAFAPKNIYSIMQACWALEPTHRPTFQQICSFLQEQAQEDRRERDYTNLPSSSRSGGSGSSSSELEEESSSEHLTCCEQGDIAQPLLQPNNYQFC
Sequence of Glycogen synthase kinase-3 beta (P49841 whole entry): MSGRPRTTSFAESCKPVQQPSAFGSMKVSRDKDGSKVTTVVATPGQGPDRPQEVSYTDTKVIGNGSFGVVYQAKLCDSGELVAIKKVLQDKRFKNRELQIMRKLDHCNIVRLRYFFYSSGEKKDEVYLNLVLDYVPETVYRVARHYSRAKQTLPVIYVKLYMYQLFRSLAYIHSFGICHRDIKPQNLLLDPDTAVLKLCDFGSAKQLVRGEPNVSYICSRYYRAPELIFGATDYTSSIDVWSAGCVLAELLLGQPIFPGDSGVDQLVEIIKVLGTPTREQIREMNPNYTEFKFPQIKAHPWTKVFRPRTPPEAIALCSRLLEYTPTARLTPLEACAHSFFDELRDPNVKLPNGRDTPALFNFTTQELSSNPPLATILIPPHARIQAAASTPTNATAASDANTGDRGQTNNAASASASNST
Sequence of Serine/threonine-protein kinase pim-1 (P11309 whole entry): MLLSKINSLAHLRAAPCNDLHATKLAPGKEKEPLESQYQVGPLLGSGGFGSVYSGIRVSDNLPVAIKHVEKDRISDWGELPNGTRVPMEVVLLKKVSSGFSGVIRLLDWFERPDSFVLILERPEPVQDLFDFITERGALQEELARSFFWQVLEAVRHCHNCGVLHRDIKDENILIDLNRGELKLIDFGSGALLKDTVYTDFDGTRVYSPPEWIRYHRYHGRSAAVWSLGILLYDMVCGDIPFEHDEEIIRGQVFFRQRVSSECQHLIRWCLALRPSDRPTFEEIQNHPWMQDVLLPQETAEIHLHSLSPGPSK

`CCC(=O)Nc1ccc(C(=O)N2CCNCC2)c(O)c1` was tested, and the Ki [1] was 158 nM (active), the Ki [2] was 398 nM (active) and the Ki [3] was 316 nM (active). The Ki [4] was 794 nM (active), the Ki [5] was 79.4 nM (active) and the Ki [6] was 631 nM (active). For the same compound, the Ki [7] was 398 nM (active), the Ki [8] was 794 nM (active) and the Ki (Activin receptor type-1) was > 3980 nM (inactive). For the same compound, the Ki [9] was 126 nM (active), the Ki [10] was 398 nM (active) and the Ki [11] was 1580 nM (active). For the same compound, the Ki [12] was 79.4 nM (active), the Ki [13] was 251 nM (active) and the Ki [14] was 2000 nM (active). The Ki [15] was 1000 nM (active), the Ki [16] was 50.1 nM (active) and the Ki [17] was 398 nM (active). For the same compound, the Ki [18] was 316 nM (active), the Ki [19] was 1000 nM (active) and the Ki [20] was > 3980 nM (inactive). The Ki [21] was 631 nM (active), the Ki [22] was 794 nM (active) and the Ki [23] was > 3980 nM (inactive). The Ki [24] was > 3160 nM (inactive), the Ki [25] was 126 nM (active) and the Ki [26] was 2510 nM (active). For the same compound, the Ki [27] was > 2510 nM (inactive), the Ki [28] was 1000 nM (active) and the Ki [29] was 398 nM (active). For the same compound, the Ki (Aurora kinase B) was 501 nM (active), the Ki (Aurora kinase A) was 158 nM (active) and the Ki [30] was 501 nM (active). The Ki [31] was 39.8 nM (active), the Ki [32] was 398 nM (active) and the Ki [33] was 2510 nM (active). The Ki [34] was 1580 nM (active), the Ki (LIM domain kinase 1) was 501 nM (active) and the Ki [35] was 794 nM (active). The Ki [36] was 251 nM (active), the Ki [37] was 631 nM (active) and the Ki [38] was 794 nM (active). The Ki [39] was 100 nM (active), the Ki [40] was 501 nM (active) and the Ki [41] was 63.1 nM (active). The Ki [42] was 631 nM (active), the Ki [43] was 100 nM (active) and the Ki [44] was 158 nM (active). The Ki [45] was 631 nM (active), the Ki [46] was 316 nM (active) and the Ki [47] was 631 nM (active). For the same compound, the Ki [48] was > 5010 nM (inactive), the Ki [49] was 1580 nM (active) and the Ki [50] was 200 nM (active). The Ki [51] was 794 nM (active), the Ki [52] was 100 nM (active) and the Ki (Focal adhesion kinase 1) was 3980 nM (active). The Ki [53] was 501 nM (active) and the Ki (Activated CDC42 kinase 1) was 631 nM (active).

From ChEMBL document CHEMBL1201862, “PubChem BioAssay data set” (2004)
